Earlier results, collected in patent US6783757B2, “Composition and method for increasing exorphin catabolism to treat autism” (Kirkman Group, Inc., priority 2000, dated 2004).

System: DPPIV
Details: cultured mouse intestinal wall cells (enterocyte cells)

O=C[C@H](O)[C@@H](O)[C@@H](O)[C@H](O)CO [galactose]
expression of DPPIV: increase the expression of DPPIV
